Assays:
TANK-2 enzyme = molecular target: T1, TANK-2 enzyme (Homo sapiens, UniProt Q9H2K2); assay: In vitro Scintillation Proximity Assay (SPA) for TANK-2 inhibitory activity; type: biochemical; conditions: read-out: in vitro SPA assay TANK-2 pIC50 (converted)
T1 construct: made in house
T1 sequence (Q9H2K2 1-1166): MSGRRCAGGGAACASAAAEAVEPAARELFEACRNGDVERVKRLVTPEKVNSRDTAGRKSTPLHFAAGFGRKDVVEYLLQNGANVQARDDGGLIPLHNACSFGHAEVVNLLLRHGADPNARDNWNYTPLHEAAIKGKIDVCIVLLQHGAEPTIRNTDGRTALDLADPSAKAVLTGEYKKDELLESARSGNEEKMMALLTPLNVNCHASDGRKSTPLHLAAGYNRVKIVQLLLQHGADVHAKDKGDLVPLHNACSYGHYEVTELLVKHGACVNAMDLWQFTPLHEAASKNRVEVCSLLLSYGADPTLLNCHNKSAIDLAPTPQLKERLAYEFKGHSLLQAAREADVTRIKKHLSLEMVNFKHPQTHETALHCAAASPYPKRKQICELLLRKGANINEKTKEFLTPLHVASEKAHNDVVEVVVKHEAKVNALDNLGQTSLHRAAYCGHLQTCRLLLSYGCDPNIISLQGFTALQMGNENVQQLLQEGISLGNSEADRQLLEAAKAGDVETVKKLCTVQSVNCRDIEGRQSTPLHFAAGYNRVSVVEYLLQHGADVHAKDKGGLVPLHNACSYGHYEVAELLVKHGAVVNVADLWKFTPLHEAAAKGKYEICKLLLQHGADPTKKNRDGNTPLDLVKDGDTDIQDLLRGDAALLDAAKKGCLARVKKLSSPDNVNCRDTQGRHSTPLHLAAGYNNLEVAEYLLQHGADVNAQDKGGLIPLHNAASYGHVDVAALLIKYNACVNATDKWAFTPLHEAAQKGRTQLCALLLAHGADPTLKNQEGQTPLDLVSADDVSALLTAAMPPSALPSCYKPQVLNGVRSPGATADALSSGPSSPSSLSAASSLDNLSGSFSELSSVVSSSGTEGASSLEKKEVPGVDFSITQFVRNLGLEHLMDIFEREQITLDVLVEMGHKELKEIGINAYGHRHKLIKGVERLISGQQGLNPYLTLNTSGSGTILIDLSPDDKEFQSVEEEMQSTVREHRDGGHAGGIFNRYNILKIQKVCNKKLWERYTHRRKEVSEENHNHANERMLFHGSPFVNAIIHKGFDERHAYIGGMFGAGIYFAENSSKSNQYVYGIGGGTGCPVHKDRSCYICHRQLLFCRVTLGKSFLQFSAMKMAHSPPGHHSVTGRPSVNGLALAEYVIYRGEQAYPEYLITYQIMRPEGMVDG
Method in brief: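 TANK-2 (8 μg/ml final) auto-poly(ADP-ribosyl)ation with [3H]-NAD+/NAD donor was run in Ni flash plates in Tris/HCl pH 7.4 buffer with DTT and MgCl2, 120 min at room temperature, then stopped with excess NAD and scintillation-counted. Blank-corrected cpm was expressed as % of enzyme control, and IC50 was linearly interpolated and reported as pIC50.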

tubulin = assay: Tubulin polymerization assay; type: biochemical; parameters: key: a compound showing 0 to 50% inhibition at 20 μM is reported as score 1; Score 2 compounds are defined as compound showing more than 50% inhibition at 20 μM and less than 50% inhibition at 5 μM; a compound showing more than 50% inhibition at 5 μM is reported as score 3; conditions: tested at 20 μM and 5 μM
Method in brief: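 Cytoskeleton kit tubulin was run in a 10 µl final volume at 37 °C, with fluorescence read every minute for 1 h. Polymerization was taken as the maximum slope (4-point linear regression) and expressed as % of no-compound control. Compounds were tested at 20 µM, then at 5 µM if inhibition exceeded 50%, and scored by % inhibition.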

IC50 (TANK-2 enzyme) [nM]	melting point [°C]	Structure (SMILES)	tubulin polymerisation score (tubulin)
501		CCc1cc2ccc([C@@](C)(C#N)Cc3cccc(N(C)C)c3)cc2[nH]c1=O (single isomer, unassigned) [Compound 258]	
200		CCc1cc2ccc([C@](C)(C#N)Cc3cccc(N(C)C)c3)cc2[nH]c1=O (single isomer, unassigned) [Compound 259]	
2000		CCC[C@@](C#N)(Cc1ccccc1)c1ccc2cc(CC)c(=O)[nH]c2c1 (single isomer, unassigned) [Compound 263]	
2510		CCC[C@](C#N)(Cc1ccccc1)c1ccc2cc(CC)c(=O)[nH]c2c1 (single isomer, unassigned) [Compound 264]	
79.4		CCc1cc2ccc([C@@](C)(C#N)Cc3cccc(C#N)c3)cc2[nH]c1=O (single isomer, unassigned) [Compound 268]	1 (a compound showing 0 to 50% inhibition at 20 μM is reported as score 1)
158		CCc1cc2ccc([C@](C)(C#N)Cc3cccc(C#N)c3)cc2[nH]c1=O (single isomer, unassigned) [Compound 269]	2
501		CCc1cc2ccc([C@](C)(C#N)C[C@@H]3Cc4cc(C)ccc4O3)cc2[nH]c1=O (single isomer, unassigned) [Compound 400]	
31.6	260	Cc1cc2ccc(C(C)(C#N)Cc3cccc(C#N)c3)cc2[nH]c1=O (centres unmarked) [Compound 34]	
316	233	Cc1cc2ccc([C@@](C)(C#N)Cc3cccc(C#N)c3)cc2[nH]c1=O [Compound 35]	
501	178	CC(C)c1cc2ccc(C(C)(C#N)Cc3ccccc3)cc2[nH]c1=O (centres unmarked) [Compound 38]	
1580		CCc1cc2ccc(C(C)(C#N)Cc3cccc(OC[C@@H](O)CO)c3)cc2[nH]c1=O (some centres unmarked) [Compound 56]	
794		CCc1cc2ccc(C(C)(C#N)Cc3cccc(CNS(C)(=O)=O)c3)cc2[nH]c1=O (centres unmarked) [Compound 170]	
1260		CCc1cc2ccc([C@](C)(C#N)[C@H](C)c3ccccc3)cc2[nH]c1=O [Compound 200]	
398		CCc1cc2ccc(C(C)(C#N)Cc3cccc(OCCOC)n3)cc2[nH]c1=O (centres unmarked) [Compound 219]	
631		CCc1cc2ccc(C(C)(C#N)Cc3cccc(OCCO)c3)cc2[nH]c1=O (centres unmarked) [Compound 262]	2
2510		CCc1cc2ccc(C(C)(C#N)CCOc3cccc(C(F)(F)F)c3)cc2[nH]c1=O (centres unmarked) [Compound 274]	
316		CCc1cc2ccc(C(C)(C#N)Cc3cccc(CN)c3)cc2[nH]c1=O (centres unmarked) [Compound 290]	1 (a compound showing 0 to 50% inhibition at 20 μM is reported as score 1)
126		CCc1cc2ccc(C(C)(C#N)Cc3cccc(/C=C/S(C)(=O)=O)c3)cc2[nH]c1=O (centres unmarked) [Compound 292]	
1000		CCc1c(Cl)c2ccc(C(C)(C#N)Cc3cccc(C#N)c3)cc2[nH]c1=O (centres unmarked) [Compound 293]	
158		CCc1cc2cc(OC)c(C(C)(C#N)Cc3ccccc3)cc2[nH]c1=O (centres unmarked) [Compound 294]	
1580		CCc1cc2ccc(C(C)(C#N)Cc3cccc(C#CCOC)c3)cc2[nH]c1=O (centres unmarked) [Compound 297]	
1580		CCc1cc2ccc(C(C)(C#N)Cc3cccc(C#CCN(C)C)c3)cc2[nH]c1=O (centres unmarked) [Compound 298]	
79.4		CCc1cc2ccc(C(C)(C#N)CNCc3cccc(C#N)c3)cc2[nH]c1=O (centres unmarked) [Compound 301]	
126		CCc1cc2ccc(C(C)(C#N)Cc3cnc(Cl)nc3Cl)cc2[nH]c1=O (centres unmarked) [Compound 306]	
3160		COc1cc(OC)nc(CC(C)(C#N)c2ccc3cc(C)c(=O)[nH]c3c2)n1 (centres unmarked) [Compound 308]	2
2000		CCOc1cc(OCC)nc(CC(C)(C#N)c2ccc3cc(CC)c(=O)[nH]c3c2)n1 (centres unmarked) [Compound 309]	
251		CCc1cc2ccc(C(C)(C#N)Cc3cccc(Cl)n3)cc2[nH]c1=O (centres unmarked) [Compound 310]	

IC50 (TANK-2 enzyme) [nM]	melting point [°C]	Structure (SMILES)	tubulin polymerisation score (tubulin)
1260		CCc1cc2ccc(C(C)(C#N)Cc3ncc(C)c(OC)c3C)cc2[nH]c1=O (centres unmarked) [Compound 311]	
631		CCc1cc2ccc(C(C)(C#N)Cc3ccc(C)nc3)cc2[nH]c1=O (centres unmarked) [Compound 327]	1 (a compound showing 0 to 50% inhibition at 20 μM is reported as score 1)
316		CCc1cc2ccc(C(C)(C#N)Cc3cccc(C#N)n3)cc2[nH]c1=O (centres unmarked) [Compound 329]	3 (a compound showing more than 50% inhibition at 5 μM is reported as score 3)
501		CCCn1ccnc1CC(C)(C#N)c1ccc2cc(CC)c(=O)[nH]c2c1 (centres unmarked) [Compound 335]	
100		CCc1cc2ccc(C(C)(C#N)Cc3ccc4ccccc4n3)cc2[nH]c1=O (centres unmarked) [Compound 336]	
631		CCc1cc2ccc(C(C)(C#N)Cc3nccn3CC)cc2[nH]c1=O (centres unmarked) [Compound 337]	
501		CCc1cc2ccc(C(C)(C#N)Cc3nc4ccccc4n3C)cc2[nH]c1=O (centres unmarked) [Compound 338]	2
398		CCc1cc2ccc(C(C)(C#N)Cc3cccc(C)n3)cc2[nH]c1=O (centres unmarked) [Compound 343]	
316		CCc1cc2ccc(C(C)(C#N)Cc3cccc(Br)n3)cc2[nH]c1=O (centres unmarked) [Compound 344]	
501		CCc1cc2ccc(C(C)(C#N)Cc3cccc(CO)n3)cc2[nH]c1=O (centres unmarked) [Compound 345]	2
631		CCc1cc2ccc(C(C)(C#N)Cc3ccc(OC)nc3)cc2[nH]c1=O (centres unmarked) [Compound 352]	
200		CCc1cc2ccc(C(C)(C#N)Cc3cccc(OC)n3)cc2[nH]c1=O (centres unmarked) [Compound 353]	2
79.4		CCc1cc2ccc(C(C)(C#N)Cc3cnc(OC)nc3Cl)cc2[nH]c1=O (centres unmarked) [Compound 356]	
79.4		CCc1cc2ccc(C(C)(C#N)Cc3cnc(OC)nc3OC)cc2[nH]c1=O (centres unmarked) [Compound 357]	
100		CCc1cc2ccc(C(C)(C#N)Cc3cc(OC)nc(OC)n3)cc2[nH]c1=O (centres unmarked) [Compound 358]	2
100		CCc1cc2ccc(C(C)(C#N)Cc3nc(Cl)cc(N(C)C)n3)cc2[nH]c1=O (centres unmarked) [Compound 359]	2
126		CCc1cc2ccc(C(C)(C#N)Cc3nccc(OC)n3)cc2[nH]c1=O (centres unmarked) [Compound 360]	2
158		CCc1cc2ccc(C(C)(C#N)Cc3cc(OCCOC)nc(C)n3)cc2[nH]c1=O (centres unmarked) [Compound 363]	
100		CCc1cc2ccc(C(C)(C#N)Cc3cc(N(C)C)nc(Cl)n3)cc2[nH]c1=O (centres unmarked) [Compound 364]	
158		CCc1cc2ccc(C(C)(C#N)Cc3cc(OC)nc(C)n3)cc2[nH]c1=O (centres unmarked) [Compound 366]	
158		CCc1cc2ccc(C(C)(C#N)Cc3cc(OCCOC)nc(Cl)n3)cc2[nH]c1=O (centres unmarked) [Compound 367]	
158		CCc1cc2ccc(C(C)(C#N)Cc3nc(C)cc(C)n3)cc2[nH]c1=O (centres unmarked) [Compound 368]	
631		CCc1cc2ccc(C(C)(C#N)Cc3nccc(OCCOC)n3)cc2[nH]c1=O (centres unmarked) [Compound 369]	
251		CCc1cc2ccc(C(C)(C#N)Cc3nc(Cl)cc(OCCOC)n3)cc2[nH]c1=O (centres unmarked) [Compound 370]	
126		CCc1cc2ccc(C(C)(C#N)Cc3cc(Cl)nc(Cl)c3)cc2[nH]c1=O (centres unmarked) [Compound 372]	
501		CCc1cc2ccc(C(C)(C#N)Cc3cc(OC)ccn3)cc2[nH]c1=O (centres unmarked) [Compound 373]	
100		CCc1cc2ccc(C(C)(C#N)CC3CCc4ccccc4O3)cc2[nH]c1=O (centres unmarked) [Compound 399]	

Structure (SMILES)	IC50 (TANK-2 enzyme) [nM]	melting point [°C]	tubulin polymerisation score (tubulin)
CCc1cc2ccc(C(C)(C#N)Cc3cccc(C#C[Si](C)(C)C)n3)cc2[nH]c1=O (centres unmarked) [Compound 210]	3980		
